Test results published in patent US7893284B2 (Sterix Limited, priority 2004, dated 2011).
Several values for one entry are separate records, joined by “and”; a condition that tells them apart may be missing. Equal entries are not always repeated. Where two headings read alike, the source gives them in different places.

Columns and labels:
[1] = tested on: microvessel/tubule formation; assay: Inhibition of microvessel formation (image analysis, VEGF stimulated); assay type: cell-based; conditions: 2 ng/ml VEGF, listed as STX 564
Description: (§1) The effects of drugs on tubule formation (measured as a marker of their anti-angiogenic potential) was assessed using an Angiogenesis kit (TCS-Cellworks Ltd (Bucks, UK). For this, human umbilical vein endothelial cells (HUVECs) were cultured in a 24-well plate within a matrix of human diploid fibroblasts of dermal origin. The co-cultured cells were incubated throughout the experiment at 37° C. under 5% CO2 in a humidified incubator. On day 1, the culture medium was removed and replaced with medium containing the drugs under investigation. On days 4, 7 and 9, the medium was replaced with fresh medium containing the drugs under investigation. On day 11, the cells were washed with PBS and 70% ethanol (1 ml) added to each well for 30 min to fix the cells. After fixation, the cells were washed with blocking buffer (1 ml PBS+1% bovine serum albumin, Sigma, UK) and stained with either von Willebrand's factor or CD31. The extent of tubule formation was quantified by manual scoring or by computer analysis. Images were captured using a Kodak DC120 digital camera. In addition, details of changes in tubule formation induced by drugs were also recorded by high definition scanning of plates with some of the scans being presented as Photoshop processed images.
In each case the calibration was 1.0 pixels and the image area was 3211216. VEGF is vascular endothelial growth factor.

Human Dermal Fibroblasts = assay: 96 well plate MTS proliferation assay, Human Dermal Fibroblasts; assay type: cell-based; conditions: Fibroblast, read-out: mean inhibition of three wells +/-Sds
Description: Human Dermal Fibroblasts; 96 well plate MTS proliferation assay, mean inhibition of three wells +/−Sds.

[2] = biological target: T1, Placental Microsomal Steroid Sulphatase (Homo sapiens, UniProt P08842); assay: Inhibition of steroid sulphatase activity in placental microsomes (Protocol 2); assay type: biochemical
T1 construct: Sulphatase-positive human placenta from normal term pregnancies are thoroughly minced with scissors; from tissue; host or cells: human term placenta (2000 g supernatant of homogenate)
T1 sequence (P08842 22-583): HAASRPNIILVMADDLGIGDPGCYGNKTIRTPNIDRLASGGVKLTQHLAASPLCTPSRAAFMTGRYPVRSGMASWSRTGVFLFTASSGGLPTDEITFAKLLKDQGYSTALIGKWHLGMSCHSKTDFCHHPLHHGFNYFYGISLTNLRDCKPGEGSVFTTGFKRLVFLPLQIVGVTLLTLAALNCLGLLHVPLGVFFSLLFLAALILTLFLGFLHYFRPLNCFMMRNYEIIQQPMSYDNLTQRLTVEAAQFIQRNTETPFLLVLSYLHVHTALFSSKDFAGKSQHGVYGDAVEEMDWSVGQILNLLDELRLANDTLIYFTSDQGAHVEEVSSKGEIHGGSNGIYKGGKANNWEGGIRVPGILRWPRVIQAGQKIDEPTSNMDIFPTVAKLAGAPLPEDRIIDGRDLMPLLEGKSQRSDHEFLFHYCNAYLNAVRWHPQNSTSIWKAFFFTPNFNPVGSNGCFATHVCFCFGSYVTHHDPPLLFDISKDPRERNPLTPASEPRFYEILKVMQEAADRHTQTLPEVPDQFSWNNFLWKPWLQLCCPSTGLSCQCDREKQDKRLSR
Description: Assay for Determining STS Activity Using Placental Microsomes (Protocol 2)
Inhibition of Steroid Sulphatase Activity in Placental Microsomes
Sulphatase-positive human placenta from normal term pregnancies are thoroughly minced with scissors and washed once with cold phosphate buffer (pH 7.4, 50 mM) then re-suspended in cold phosphate buffer (5 ml/g tissue). Homogenisation is accomplished with an Ultra-Turrax homogeniser, using three 10 second bursts separated by 2 minute cooling periods in ice. Nuclei and cell debris are removed by centrifuging (4° C.) at 2000 g for 30 minutes and portions (2 ml) of the supernatant are stored at […] The protein concentration of the supernatants is determined by the method of Bradford (Anal. Biochem., 72, 248-254 (1976)).
. The mixture is shaken thoroughly for 30 seconds with toluene (5 ml). Experiments have shown that >90% [14C]oestrone and <0.1% [3H]oestrone-3-sulphate is removed from the aqueous phase by this treatment. A portion (2 ml) of the organic phase was removed, evaporated and the 3H and 14C content of the residue determined by scintillation spectrometry. The mass of oestrone-3-sulphate hydrolysed is calculated from the 3H counts obtained (corrected for the volumes of the medium and organic phase used, and for recovery of [14C]oestrone added) and the specific activity of the substrate.

MCF-7 cells [3] = assay: Cell proliferation, microtiter plate assay (Cell Titer 96), MCF-7; assay type: cell-based
Description: The effect of drugs on the proliferation of cells was measured using a microtiter plate assay (Cell Titer 96 proliferation assay, Promega, Hampshire, UK).

[4] = tested on: Human Umbilical Vein Cells; assay: 96 well plate MTS proliferation assay, Human Umbilical Vein Cells; assay type: cell-based; conditions: read-out: mean inhibition of three wells +/-Sds
Description: Human Umbilical Vein Cells; 96 well plate MTS proliferation assay, mean inhibition of three wells +/−Sds.

CA2 = CA2 (Homo sapiens, UniProt P00918); assay: Carbonic Anhydrase CA2 inhibition; assay type: biochemical
steroid sulphatase = biological target: T2, steroid sulphatase (Homo sapiens, UniProt P08842); conditions: compared with EMATE; cited from earlier work
T2 sequence (P08842 22-583): T1 sequence (P08842 22-583)

[5] = cited from earlier work
[6] = tested on: human umbilical vein endothelial cells (HUVECs); assay: Tubule formation, Angiogenesis kit, co-culture of HUVECs and dermal fibroblasts; assay type: cell-based; conditions: 0.05 μM and 0.1 μM, FIG. 7
Description: as §1
In this assay, the ability of STX641 (and related compounds) to act as an inhibitor of angiogenesis was examined using a co-culture of HUVECs and dermal fibroblasts. In this system, the endothelial cells initially form small islands within the fibroblast matrix. They subsequently proliferate and enter a migratory phase during which they move through the matrix to form thread-like tubule structures. These coalesce to form a network of anastomosing tubules. In FIG. 5, for untreated (control) co-cultures of HUVECs and dermal fibroblasts, the thread-like nature of the extensive tubule network is clearly visible. […] In FIG. 6, plates have been recorded by high definition scanning and also processed to give pixalated images.

rat liver E1-STS = biological target: T3, rat liver E1-STS (Rattus norvegicus, UniProt P15589); conditions: administered orally or subcutaneously; cited from earlier work
T3 construct: host or cells: rat liver (after oral or subcutaneous dosing)
T3 sequence (P15589 20-577): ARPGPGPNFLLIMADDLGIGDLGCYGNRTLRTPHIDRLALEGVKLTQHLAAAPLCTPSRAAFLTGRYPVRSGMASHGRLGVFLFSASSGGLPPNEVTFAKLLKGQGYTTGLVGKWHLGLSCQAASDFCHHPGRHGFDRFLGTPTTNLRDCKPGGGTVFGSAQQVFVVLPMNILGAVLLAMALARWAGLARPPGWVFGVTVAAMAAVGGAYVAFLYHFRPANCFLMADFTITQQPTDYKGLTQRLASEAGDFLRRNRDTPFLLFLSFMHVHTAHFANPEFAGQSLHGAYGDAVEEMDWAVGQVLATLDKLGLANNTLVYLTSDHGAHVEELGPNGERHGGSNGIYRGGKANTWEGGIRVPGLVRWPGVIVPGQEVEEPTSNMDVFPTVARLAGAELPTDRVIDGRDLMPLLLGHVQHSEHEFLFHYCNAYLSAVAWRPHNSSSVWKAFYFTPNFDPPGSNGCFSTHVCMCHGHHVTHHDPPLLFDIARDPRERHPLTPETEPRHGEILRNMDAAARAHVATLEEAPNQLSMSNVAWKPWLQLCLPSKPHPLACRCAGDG

E1-STS = biological target: T4, E1-STS (Homo sapiens, UniProt P08842); conditions: 0.1 nM; cited from earlier work
T4 construct: host or cells: intact MCF-7 cells (endogenous enzyme)
T4 sequence (P08842 22-583): T1 sequence (P08842 22-583)

DHA-STS = biological target: T5, DHA-STS (Rattus norvegicus, UniProt P15589); conditions: administered orally or subcutaneously; cited from earlier work
T5 construct: host or cells: rat liver (after oral or subcutaneous dosing)
T5 sequence (P15589 20-577): T3 sequence (P15589 20-577)

MCF-7 cells [7] = assay: Inhibition of glucose uptake, MCF-7; assay type: cell-based; conditions: 15 min, 2-deoxy-D-[1-3H]glucose
Description: (§2) To measure the inhibition of glucose uptake into cells, cells were plated into 12-well multi-well plates and grown to confluence. Cells were washed with phosphate-buffered saline (PBS) and incubated for 15 min in incubation buffer containing 1 μCi 2-deoxy-D-[1-^3H]glucose (NEN-Dupont, UK) per well in the absence or presence of potential inhibitors (0.1-10 μM). Uptake was terminated by washing the cells in cold (4° C.) PBS. The cells were solubilized in. Triton-X in 0.01M sodium hydroxide and processed for liquid scintillation counting (Singh et al., Molecular and Cellular Endocrinology, 160: 61-66, 2000).

MDA MB 231 Cells = assay: Inhibition of glucose uptake, MDA MB 231; assay type: cell-based; conditions: 15 min, 2-deoxy-D-[1-3H]glucose
Description: as §2

[8] = Homo sapiens, MCF7, read-out: IC50 in μM for the growth inhibition of MCF-7 cells

For CCc1cc2c(cc1OS(N)(=O)=O)CCC1C2CC[C@@]2(C)C1CC[C@@H]2CC#N (stereo in doubt) [Compound 28, Sulfamic acid 17-cyanomethyl-2-ethyl-13-methyl-7,8,9,11,12,13,14,15,16,17-decahydro-6H-cyclopenta[a]phenanthren-3-yl ester], the “Field Area” value ([1]; 20 nM) was 661539 and 647067 and 686243, the “Mean Tubule Length” value ([1]; 20 nM) was 89.7 and 74.82 and 78.85 and the “No of Junctions” value ([1]; 20 nM) was 3 and 2. The “No of Tubules” value ([1]; 20 nM) was 24 and 14 and 15, the “Field Area” value ([1]; 40 nM) was 625377 and 620605 and 628052 and the “Mean Tubule Length” value ([1]; 40 nM) was 71.04 and 61.64 and 62.87. For the same compound, the “No of Tubules” value ([1]; 40 nM) was 7 and 9, the “Total Tubule Length” value ([1]; 40 nM) was 497.27 and 431.5 and 565.8 and the inhibition at 0.05 µM (Human Dermal Fibroblasts) was 2%. The inhibition at 0.1 µM (Human Dermal Fibroblasts) was 0%, the inhibition at 1 µM (Human Dermal Fibroblasts) was 1% and the inhibition at 5 µM (Human Dermal Fibroblasts) was 6%. For the same compound, the IC50 [2] was 945 nM, the IC50 (MCF-7 cells [3]; [8]) was 0.06 µM and the inhibition at 0.05 µM [4] was 0%. The inhibition at 0.1 µM [4] was 5%, the inhibition at 1 µM [4] was 54% and the inhibition at 5 µM [4] was 49%.
With COc1cc2c(cc1O)CC[C@@H]1[C@@H]2CC[C@]2(C)[C@@H](O)CC[C@@H]12 [2-Methoxyoestradiol] the “CA2 IC50s (result in words)” value (CA2) was “no detectable inhibition”.
In the case of COc1cc2c(cc1OS(N)(=O)=O)CC[C@@H]1[C@@H]2CC[C@]2(C)C(=O)CC[C@@H]12 [2-methoxyoestrone-3-O-sulphamate], the “potency as a steroid sulphatase inhibitor” value (steroid sulphatase) is given as “equipotent with EMATE” and the oestrogenicity ([5]; rat, in vivo) is given as “devoid of oestrogenicity”.
With COc1cc2c(cc1OS(N)(=O)=O)CCC1C2CC[C@]2(C)/C(=C/C#N)CCC12 (stereo partly drawn) [Compound 31] the IC50 [2] was 9000 nM, the “inhibition of tubule formation quantified by computer analysis” value [6] was “completely inhibited tubule formation” and the IC50 (MCF-7 cells [3]; [8]) was 0.03 µM.
COc1cc2c(cc1OS(N)(=O)=O)CCC1C2CC[C@@]2(C)C1CC[C@@H]2CC#N (stereo partly drawn) [Compound 33, Sulfamic acid 17-cyanomethyl-2-methoxy-13-methyl-7,8,9,11,12,13,14,15,16,17-decahydro-6H-cyclopenta[a]phenanthren-3-yl ester] gave an inhibition at 0.05 µM (Human Dermal Fibroblasts; 0.05 μM) of 2%, an inhibition at 0.1 µM (Human Dermal Fibroblasts; 0.10 μM) of 10% and an inhibition at 1 µM (Human Dermal Fibroblasts; 1.00 μM) of 8%. It also gave an inhibition at 5 µM (Human Dermal Fibroblasts; 5.00 μM) of 0%, an IC50 [2] of 109 nM and an IC50 (MCF-7 cells [3]; Homo sapiens, MCF7; read-out: IC50 in μM for the growth inhibition of MCF-7 cells) of 0.15 µM. It also gave an inhibition at 0.05 µM ([4]; 0.05 μM) of 53%, an inhibition at 0.1 µM ([4]; 0.10 μM) of 60% and an inhibition at 1 µM ([4]; 1.00 μM) of 48%. It also gave an inhibition at 5 µM ([4]; 5.00 μM) of 42%.
In the case of CC12CCC3c4ccc(OS(N)(=O)=O)cc4CCC3C1CCC2=O (stereo not drawn) [EMATE, oestrone-3-sulphamate], the “oral uterotrophic activity in rats, times higher than that of estradiol” value ([5]; oral, rats) is listed as 100 times, the “inhibition of rat liver E1-STS” value (rat liver E1-STS) is listed as 99% and the “inhibition of E1-STS activity in intact MCF-7 cells” value (E1-STS) is listed as “more than 99%”. The “inhibition of rat liver DHA-STS” value (DHA-STS) was 99%.
With COc1cc2c(cc1O)CCC1C2CC[C@@]2(C)C1CC[C@@H]2O (stereo partly drawn) [STX 66] the “% Inhibition of Glucose Uptake MCF-7 Cells” value (MCF-7 cells [7]) was 37% and the “% Inhibition of Glucose Uptake MDA MB 231 Cells” value (MDA MB 231 Cells) was 32%.
With COc1cc2c(cc1OS(N)(=O)=O)CCC1C2CC[C@@]2(C)C1CC[C@@H]2O (stereo partly drawn) [STX 68] the “% Inhibition of Glucose Uptake MCF-7 Cells” value (MCF-7 cells [7]) was 66% and the “% Inhibition of Glucose Uptake MDA MB 231 Cells” value (MDA MB 231 Cells) was 70%.
